Legend:
hα1 GlyR = target: T1, hα1 GlyR (Homo sapiens, UniProt P23415); test: TEVC selectivity, hα1 GlyR in oocytes; type: cell-based; conditions: 30 μM, 30 s preapplication, 100 μM glycine (EC20–EC40)
T1 sequence (P23415 29-457): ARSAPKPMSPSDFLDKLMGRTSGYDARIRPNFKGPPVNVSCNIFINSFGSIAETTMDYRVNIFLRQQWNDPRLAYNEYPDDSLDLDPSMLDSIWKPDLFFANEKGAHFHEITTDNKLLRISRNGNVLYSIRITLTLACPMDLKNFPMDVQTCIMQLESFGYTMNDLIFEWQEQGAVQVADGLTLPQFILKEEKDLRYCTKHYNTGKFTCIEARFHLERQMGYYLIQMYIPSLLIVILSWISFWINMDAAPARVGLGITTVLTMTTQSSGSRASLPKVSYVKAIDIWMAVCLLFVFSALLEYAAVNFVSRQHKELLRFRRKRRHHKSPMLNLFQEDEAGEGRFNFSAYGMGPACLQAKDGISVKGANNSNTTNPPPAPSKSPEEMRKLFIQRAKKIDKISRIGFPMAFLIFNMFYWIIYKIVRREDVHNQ
Procedure: The cDNAs for the various WT and chimeric CLR subunits were linearized and subsequently transcribed and capped mMessage mMachine T7 RNA transcription kit (Ambion, Waltham, MA). […]
On the day of experiment, all compound dilutions were prepared in a saline solution [115 mM NaCl, 2.5 mM KCl, 10 mM MOPS (pH 7.5), 1.8 mM CaCl2, 0.1 mM MgCl2] and pH adjusted to 7.5 (if needed). […] Currents were recorded using pCLAMP 10 (Molecular Devices, Sunnyvale, CA). […]
In all recordings, the compounds or compound combinations were applied in the bath until the peak current decayed to a steady state (up to 30 sec at the most). […] The functional properties of the modulators at the CLRs were determined by pre-application of the modulator to the perfusate 30 sec and followed by co-application of the modulator and the agonist to the perfusate. […]
Data analysis of the results from the TEVC recordings were performed using Clampfit software version 10.5 (Molecular Devices, Crawley, UK) and GraphPad Prism version 7.0c (GraphPad Software, Inc. La Jolla, CA). […] I-V relationships were analyzed by fitting the curves with a third order polynomial model. […]

h5-HT3A = target: T2, h5-HT3A (Homo sapiens, UniProt P46098); test: FMP assay at h5-HT3A-HEK293 cells; type: cell-based; conditions: concentrations up to 100 μM, data not shown
T2 construct: expressed in transfected cells
T2 sequence (P46098 24-478): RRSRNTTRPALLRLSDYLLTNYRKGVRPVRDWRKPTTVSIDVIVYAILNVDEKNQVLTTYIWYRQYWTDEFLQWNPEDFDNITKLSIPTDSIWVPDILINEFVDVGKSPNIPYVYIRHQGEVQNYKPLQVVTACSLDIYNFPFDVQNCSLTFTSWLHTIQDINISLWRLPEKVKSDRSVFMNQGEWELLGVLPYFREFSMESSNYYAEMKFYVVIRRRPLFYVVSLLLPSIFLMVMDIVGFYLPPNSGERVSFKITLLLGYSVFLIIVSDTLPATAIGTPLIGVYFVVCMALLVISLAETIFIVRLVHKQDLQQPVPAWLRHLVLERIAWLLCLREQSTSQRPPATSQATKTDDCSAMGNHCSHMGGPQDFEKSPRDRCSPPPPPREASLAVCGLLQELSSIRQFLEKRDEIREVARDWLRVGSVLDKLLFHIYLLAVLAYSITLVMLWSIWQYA

Row | Agonist, antagonist or PAM activity (hα1 GlyR) | Effect on 5-HT-induced response (h5-HT3A) | SMILES
1 | did not display significant activity | – | CC(C)(C)c1csc(NC(=O)c2cccc(F)c2)n1 [5a, N-(4-(tert-butyl)thiazol-2-yl)-3-fluorobenzamide]
2 | – | did not affect | COC(=O)c1sc(NC(=O)c2cc(Br)ccc2Cl)nc1C [compound 1, 2-(5-bromo-2-chlorobenzamido)-4-methylthiazole-5-methyl ester]
